Paper PMC7377239, “Cardiovascular Effects of Polychlorinated Biphenyls and Their Major Metabolites” (Environmental Health Perspectives, 2020)
Structures can show the parent of a compound that is named as a salt. Where two headings read alike, the source gives them in different places.

Key:
[1] = tested on: HUVECs; assay: Tube formation (tubulogenesis) assay in HUVECs, 18 h; type: cell-based, human; conditions: for activity at 0.01 µM / activity at 0.1 µM / activity at 1 µM / activity at 10 µM / activity at 100 µM / minimal effective concentration: Homo sapiens, HUVEC, 18 h, HUVECs; for activity at 0.1 µM: 0.10 µM; for minimal effective concentration: top concentration 100.00 µM; for huvec.mtl.18hr / huvec.tlps.18hr / huvec.tta.18hr / huvec.ttl.18hr: HUVECs tube formation, 0.00 µM = 100.00
Outline: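 HUVECs (passage 1–5) seeded on reduced-growth-factor basement membrane and exposed to compounds overnight at 37°C, 5% CO2, in 2× maintenance medium with 12.5 ng/mL VEGF; 0.5% DMSO vehicle. Calcein AM-stained tube networks imaged and analysed; vehicle-normalized readouts fit to four-parameter logistic, POD set at one SD of vehicle means.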

[2] = tested on: iCell endothelial cells (human iPSC-derived ECs); assay: High-content imaging cytotoxicity in iCell endothelial cells, 24 h; type: cell-based; conditions: iPSC-EC; for viability at 0.01 µM / activity at 0.01 µM / viability at 0.1 µM / activity at 0.1 µM / viability at 1 µM / activity at 1 µM / viability at 10 µM / activity at 10 µM / viability at 100 µM / activity at 100 µM / minimal effective concentration: Homo sapiens, Endothelial cell, 24 hr; for minimal effective concentration: top concentration 100.00 µM; for endo.cyto.24hr / endo.mito.24hr / endo.mitoint.24hr / endo.nma.24hr / endo.tc.24hrs: 0.00 µM = 100.00
Outline: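 Human iPSC-derived endothelial cells (passages 1–5) were grown to a fibronectin-coated monolayer, then exposed 24 h at 37 °C with 0.5% DMSO vehicle. Staining was Hoechst 33342, MitoTracker Orange and calcein AM, read by high-content imaging. Point of departure came from 4-parameter logistic fits, with a 1-SD vehicle cutoff and 100 µM as the top concentration.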

[3] = 0.00 µM = 100.00, read-out: huvec.mtl.18hr
[4] = 0.00 µM = 100.00, read-out: huvec.tlps.18hr
[5] = 0.00 µM = 100.00, read-out: huvec.tta.18hr
[6] = 0.00 µM = 100.00, read-out: huvec.ttl.18hr

O=S(=O)(O)Oc1cc(Cl)ccc1-c1ccccc1 [2-yl PCB 3 sulfate]
activity at 0.01 µM [1, 3]: 100% | activity at 0.01 µM [1, 4]: 98.8% | activity at 0.01 µM [1, 5]: 108% | activity at 0.01 µM [1, 6]: 108% | activity at 0.1 µM [1, 3]: 99.3% | activity at 0.1 µM [1, 4]: 101% | activity at 0.1 µM [1, 5]: 147% | activity at 0.1 µM [1, 6]: 147% | activity at 1 µM [1, 3]: 97.8% | activity at 1 µM [1, 4]: 116% | activity at 1 µM [1, 5]: 132% | activity at 1 µM [1, 6]: 128% | activity at 10 µM [1, 3]: 90.4% | activity at 10 µM [1, 4]: 99.7% | activity at 10 µM [1, 5]: 90.3% | activity at 10 µM [1, 6]: 93.2% | activity at 100 µM [1, 3]: 74.5% | activity at 100 µM [1, 4]: 59.6% | activity at 100 µM [1, 5]: 61.5% | activity at 100 µM [1, 6]: 62% | minimal effective concentration ([1]; read-out: huvec.mtl.18hr POD): 10.7 µM | minimal effective concentration ([1]; read-out: huvec.tlps.18hr POD): 37.4 µM | minimal effective concentration ([1]; read-out: huvec.tta.18hr POD): 100 µM | minimal effective concentration ([1]; read-out: huvec.ttl.18hr POD): 100 µM | viability at 0.01 µM ([2]; 0.01 µM, 0.00 µM control = 100.00, read-out: endo.cyto.24hr): 93% | activity at 0.01 µM ([2]; 0.01 µM, 0.00 µM control = 100.00, read-out: endo.mito.24hr): 93.3% | activity at 0.01 µM ([2]; 0.01 µM, 0.00 µM control = 100.00, read-out: endo.mitoint.24hr): 114% | activity at 0.01 µM ([2]; 0.01 µM, 0.00 µM control = 100.00, read-out: endo.nma.24hr): 103% | viability at 0.01 µM ([2]; 0.01 µM, 0.00 µM control = 100.00, read-out: endo.tc.24hrs): 93% | viability at 0.1 µM ([2]; 0.10 µM, 0.00 µM control = 100.00, read-out: endo.cyto.24hr): 97.1% | activity at 0.1 µM ([2]; 0.10 µM, 0.00 µM control = 100.00, read-out: endo.mito.24hr): 97% | activity at 0.1 µM ([2]; 0.10 µM, 0.00 µM control = 100.00, read-out: endo.mitoint.24hr): 101% | activity at 0.1 µM ([2]; 0.10 µM, 0.00 µM control = 100.00, read-out: endo.nma.24hr): 100% | viability at 0.1 µM ([2]; 0.10 µM, 0.00 µM control = 100.00, read-out: endo.tc.24hrs): 97.1% | viability at 1 µM ([2]; 1.00 µM, 0.00 µM control = 100.00, read-out: endo.cyto.24hr): 97.8% | activity at 1 µM ([2]; 1.00 µM, 0.00 µM control = 100.00, read-out: endo.mito.24hr): 98.5% | activity at 1 µM ([2]; 1.00 µM, 0.00 µM control = 100.00, read-out: endo.mitoint.24hr): 104% | activity at 1 µM ([2]; 1.00 µM, 0.00 µM control = 100.00, read-out: endo.nma.24hr): 99.6% | viability at 1 µM ([2]; 1.00 µM, 0.00 µM control = 100.00, read-out: endo.tc.24hrs): 97.8% | viability at 10 µM ([2]; 10.00 µM, 0.00 µM control = 100.00, read-out: endo.cyto.24hr): 97.1% | activity at 10 µM ([2]; 10.00 µM, 0.00 µM control = 100.00, read-out: endo.mito.24hr): 97.8% | activity at 10 µM ([2]; 10.00 µM, 0.00 µM control = 100.00, read-out: endo.mitoint.24hr): 118% | activity at 10 µM ([2]; 10.00 µM, 0.00 µM control = 100.00, read-out: endo.nma.24hr): 99.1% | viability at 10 µM ([2]; 10.00 µM, 0.00 µM control = 100.00, read-out: endo.tc.24hrs): 97.2% | viability at 100 µM ([2]; 100.00 µM, 0.00 µM control = 100.00, read-out: endo.cyto.24hr): 102% | activity at 100 µM ([2]; 100.00 µM, 0.00 µM control = 100.00, read-out: endo.mito.24hr): 102% | activity at 100 µM ([2]; 100.00 µM, 0.00 µM control = 100.00, read-out: endo.mitoint.24hr): 99.3% | activity at 100 µM ([2]; 100.00 µM, 0.00 µM control = 100.00, read-out: endo.nma.24hr): 96.5% | viability at 100 µM ([2]; 100.00 µM, 0.00 µM control = 100.00, read-out: endo.tc.24hrs): 102% | minimal effective concentration ([2]; read-out: endo.cyto.24hr POD): 100 µM | minimal effective concentration ([2]; read-out: endo.mito.24hr POD): 100 µM | minimal effective concentration ([2]; read-out: endo.mitoint.24hr POD): 100 µM | minimal effective concentration ([2]; read-out: endo.nma.24hr POD): 100 µM | minimal effective concentration ([2]; read-out: endo.tc.24hrs POD): 100 µM

Clc1ccc(Cl)c(-c2c(Cl)ccc(Cl)c2Cl)c1Cl [(-)-PCB 136, 2,2′,3,3′,6,6′-hexachlorobiphenyl]
huvec.mtl.18hr ([1]; concentration 0.01 µM): 89.52 | huvec.tlps.18hr ([1]; concentration 0.01 µM): 87.45 | huvec.tta.18hr ([1]; concentration 0.01 µM): 86.96 | huvec.ttl.18hr ([1]; concentration 0.01 µM): 85.21 | huvec.mtl.18hr ([1]; concentration 0.10 µM): 105.15 | huvec.tlps.18hr ([1]; concentration 0.10 µM): 104.95 | huvec.tta.18hr ([1]; concentration 0.10 µM): 96.50 | huvec.ttl.18hr ([1]; concentration 0.10 µM): 89.39 | huvec.mtl.18hr ([1]; concentration 1.00 µM): 101.33 | huvec.tlps.18hr ([1]; concentration 1.00 µM): 99.50 | huvec.tta.18hr ([1]; concentration 1.00 µM): 114.69 | huvec.ttl.18hr ([1]; concentration 1.00 µM): 103.47 | huvec.mtl.18hr ([1]; concentration 10.00 µM): 94.11 | huvec.tlps.18hr ([1]; concentration 10.00 µM): 92.84 | huvec.tta.18hr ([1]; concentration 10.00 µM): 112.35 | huvec.ttl.18hr ([1]; concentration 10.00 µM): 101.40 | huvec.mtl.18hr ([1]; concentration 100.00 µM): 75.12 | huvec.tlps.18hr ([1]; concentration 100.00 µM): 53.61 | huvec.tta.18hr ([1]; concentration 100.00 µM): 117.52 | huvec.ttl.18hr ([1]; concentration 100.00 µM): 95.13 | endo.cyto.24hr ([2]; 0.01 µM): 97.58 | endo.mito.24hr ([2]; 0.01 µM): 98.40 | endo.mitoint.24hr ([2]; 0.01 µM): 92.73 | endo.nma.24hr ([2]; 0.01 µM): 101.21 | endo.tc.24hrs ([2]; 0.01 µM): 97.58 | endo.cyto.24hr ([2]; 0.10 µM): 98.68 | endo.mito.24hr ([2]; 0.10 µM): 99.17 | endo.mitoint.24hr ([2]; 0.10 µM): 90.73 | endo.nma.24hr ([2]; 0.10 µM): 99.07 | endo.tc.24hrs ([2]; 0.10 µM): 98.68 | endo.cyto.24hr ([2]; 1.00 µM): 92.98 | endo.mito.24hr ([2]; 1.00 µM): 93.57 | endo.mitoint.24hr ([2]; 1.00 µM): 89.65 | endo.nma.24hr ([2]; 1.00 µM): 102.49 | endo.tc.24hrs ([2]; 1.00 µM): 92.98 | endo.cyto.24hr ([2]; 10.00 µM): 96.25 | endo.mito.24hr ([2]; 10.00 µM): 96.58 | endo.mitoint.24hr ([2]; 10.00 µM): 86.88 | endo.nma.24hr ([2]; 10.00 µM): 101.21 | endo.tc.24hrs ([2]; 10.00 µM): 96.25 | endo.cyto.24hr ([2]; 100.00 µM): 49.24 | endo.mito.24hr ([2]; 100.00 µM): 43.24 | endo.mitoint.24hr ([2]; 100.00 µM): 53.93 | endo.nma.24hr ([2]; 100.00 µM): 111.21 | endo.tc.24hrs ([2]; 100.00 µM): 54.61
